Data on 3 compounds can be found in PMC11740144 (ACS Omega, 2024).

One series addresses Cathepsin L (Homo sapiens, UniProt P07711). The experiment in a line: Inhibition of human protease Cathepsin L (data not shown). It counts as biochemical.
The next series deals with RBD:ACE2 interaction (Severe acute respiratory syndrome coronavirus 2, UniProt P0DTC2). In words: RBD:ACE2 interaction inhibition, NanoBiT kit (Promega). Further details: species or system delta SARS-CoV-2 RBD / human ACE2. Particulars: RBD from delta SARS-CoV-2, triplicate; read-out: IC50 of RBD:ACE2 binding inhibition.
A short description of series [1]: Cytotoxicity by acid phosphatase assay. It counts as cell-based. Particulars: African green monkey; VeroE6 cells, 3 days incubation. Here is the method: Cytotoxicity of the inhibitors was determined by using acid phosphatase assay. Briefly, VeroE6 cells were seeded onto a 96-well culture plate at a concentration of 2 × 10^4 cells per well. Next day, the medium was removed, and each well was washed once with PBS before adding DMEM containing 2% FBS and different concentrations of an inhibitor. Next, DMEM containing 2 μg/mL TPCK-trypsin was added. After 1 h of incubation at 37 °C, the medium was removed, and cells were washed by PBS. Then, DMEM containing 2% FBS and different concentrations of an antiviral was added. After 3 days of incubation at 37 °C, the medium was removed, and each well was washed once with PBS. Next, buffer containing 0.1 M sodium acetate (pH = 5.0), 0.1% Triton X-100, and 5 mM p-nitrophenyl phosphate was added. After the mixture was incubated at 37 °C for 2 h, 1 N NaOH was added to stop the reaction. The absorbance was then determined by an ELISA reader (VERSAmax, Molecular Devices, Sunnyvale, CA) at a wavelength of 405 nm. The percentage of cytotoxicity was calculated using the following formula: cytotoxicity % = [1 – (At/As) × 100]%, where At and As refer to the absorbance of a tested substance and solvent control, respectively. The 50% cytotoxicity concentration (CC50) was defined as the concentration reducing 50% of cell viability. […]

Another series addresses Furin (Homo sapiens, UniProt P09958). The experiment in a line: Inhibition of human protease Furin (data not shown). It counts as biochemical.
Series [2] relates to SARS-CoV-2. It counts as cell-based.
A further series deals with TMPRSS2 (Homo sapiens, UniProt O15393). In words: Inhibition of human protease TMPRSS2 (data not shown). It counts as biochemical.
Sequence of TMPRSS2 (O15393 whole entry): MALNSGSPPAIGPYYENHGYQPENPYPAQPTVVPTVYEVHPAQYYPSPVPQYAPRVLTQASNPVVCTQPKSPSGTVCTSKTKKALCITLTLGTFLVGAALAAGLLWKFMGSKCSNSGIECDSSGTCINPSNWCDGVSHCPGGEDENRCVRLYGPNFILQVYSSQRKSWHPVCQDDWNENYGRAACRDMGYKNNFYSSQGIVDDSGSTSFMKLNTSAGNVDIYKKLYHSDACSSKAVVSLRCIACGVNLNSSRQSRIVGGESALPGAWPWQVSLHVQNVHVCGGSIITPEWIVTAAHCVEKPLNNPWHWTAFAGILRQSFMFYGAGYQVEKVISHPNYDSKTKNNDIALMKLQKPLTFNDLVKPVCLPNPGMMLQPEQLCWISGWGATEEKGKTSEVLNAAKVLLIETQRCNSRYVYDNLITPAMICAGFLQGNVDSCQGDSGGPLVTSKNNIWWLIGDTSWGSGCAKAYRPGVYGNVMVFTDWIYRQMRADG
Series [3] relates to SARS-CoV-2 delta virus (NTU92). The experiment in a line: Plaque reduction assay, entry treatment (compound preincubated with the virus). It counts as cell-based. Particulars: Severe acute respiratory syndrome coronavirus 2, Vero C1008, VeroE6 cells, triplicate, read-out: EC50 against delta SARS-CoV-2 infecting VeroE6 cells. For orientation: Plaques are areas of infected cells; plaque reduction assays count them against a control.

In series [4] the test system is SARS-CoV-2. Particulars: VeroE6 host cells; read-out: EC50 of inhibiting SARS-CoV-2 entry into VeroE6 host cells; cited from earlier work.
For a further series, the system named is VeroE6 host cells. Particulars: cited from earlier work.

In general, IC50 refers to the midpoint of a concentration-inhibition curve. In general, CC50 refers to the concentration giving 50% cytotoxicity.

Sequence of Furin (P09958 108-794): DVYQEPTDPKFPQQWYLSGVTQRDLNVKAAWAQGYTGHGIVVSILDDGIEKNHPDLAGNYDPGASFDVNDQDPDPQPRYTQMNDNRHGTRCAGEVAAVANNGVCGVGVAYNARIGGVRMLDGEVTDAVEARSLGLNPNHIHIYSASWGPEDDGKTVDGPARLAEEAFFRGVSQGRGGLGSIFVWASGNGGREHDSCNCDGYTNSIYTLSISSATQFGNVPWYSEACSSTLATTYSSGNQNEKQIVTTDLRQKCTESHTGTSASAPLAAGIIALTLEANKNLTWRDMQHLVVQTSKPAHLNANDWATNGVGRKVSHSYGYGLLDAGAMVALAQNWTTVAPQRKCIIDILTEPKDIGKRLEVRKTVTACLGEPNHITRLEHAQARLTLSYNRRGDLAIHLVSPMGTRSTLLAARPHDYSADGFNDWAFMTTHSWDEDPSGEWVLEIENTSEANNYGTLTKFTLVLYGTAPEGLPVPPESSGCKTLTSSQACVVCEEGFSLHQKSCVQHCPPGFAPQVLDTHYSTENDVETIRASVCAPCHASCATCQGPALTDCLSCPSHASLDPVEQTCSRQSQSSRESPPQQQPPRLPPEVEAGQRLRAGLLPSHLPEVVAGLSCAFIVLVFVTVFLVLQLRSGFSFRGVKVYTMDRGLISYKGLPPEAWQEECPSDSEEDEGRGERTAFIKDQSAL
Sequence of Cathepsin L (P07711 114-333): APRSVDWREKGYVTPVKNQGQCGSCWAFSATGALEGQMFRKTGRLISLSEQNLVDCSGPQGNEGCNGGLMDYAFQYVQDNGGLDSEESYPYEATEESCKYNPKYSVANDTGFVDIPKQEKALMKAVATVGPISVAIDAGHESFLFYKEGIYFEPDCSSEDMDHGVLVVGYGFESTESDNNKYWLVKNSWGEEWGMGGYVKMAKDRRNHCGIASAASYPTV

`O=C(c1ccccc1)[C@H]1[C@@H]2c3ccccc3C=CN2[C@@H](C(=O)c2ccccc2)[C@@H]2c3ccccc3C=CN12` [Compound 50]: the “inhibition of Cathepsin L” value at Cathepsin L is reported as “no inhibition”. Moreover, the IC50 at RBD:ACE2 interaction was 32.7 ± 8.9 µM. In addition, in series [1], the CC50 at 3 days is > 100 µM. Besides, the “inhibition of Furin” value against Furin is “no inhibition”. The “anti-SARS-CoV-2 activity under the postentry treatment” value in the series on SARS-CoV-2 [2] is “not under the postentry treatment”. Besides, the “inhibition of TMPRSS2” value on TMPRSS2 is recorded as “no inhibition”. Besides, the EC50 in [3] came to 26.5 ± 6.9 µM.
In the case of `O=C(c1ccc(Cl)cc1)[C@H]1[C@@H]2c3ccccc3C=CN2[C@@H](C(=O)c2ccc(Cl)cc2)[C@@H]2c3ccccc3C=CN12` [Compound 96], the “inhibition of Cathepsin L” value on Cathepsin L is “no inhibition”. In addition, the IC50 at RBD:ACE2 interaction was 10.4 ± 2.1 µM. The CC50 at 3 days in [1] was > 100 µM. For the same compound, the “inhibition of Furin” value on Furin is reported as “no inhibition”. The “anti-SARS-CoV-2 activity under the postentry treatment” value in the series with SARS-CoV-2 [2] was “not under the postentry treatment”. Moreover, on TMPRSS2, the “inhibition of TMPRSS2” value was “no inhibition”. For the same compound, the EC50 in [3] came out at 17 ± 3.7 µM.
Consider berbamine hydrochloride, for which the EC50 with SARS-CoV-2 [4] was 1.73 µM. Moreover, the CC50 with VeroE6 host cells was 66.9 µM.
